Laboratory results from ChEMBL document CHEMBL1141896, “Synthesis and structure-activity relationships of piperidinylpyrrolopyridine derivatives as potent and selective H1 antagonists” (Bioorg Med Chem Lett, 2005).

Key:
[1] = target: Serotonin 2 (5-HT2) receptor (Homo sapiens, UniProt P41595+P28223+P28335); assay: Inhibitory concentration against 5-hydroxytryptamine 2 receptor; format: protein assay
[2] = target: T1, Adrenergic receptor alpha-1 (Rattus norvegicus, UniProt P15823+P23944+P43140); assay: Binding affinity towards Alpha-1 adrenergic receptor in rat brain using [3H]prazosin as radioligand; format: tissue-based
T1 sequence (P15823 whole entry): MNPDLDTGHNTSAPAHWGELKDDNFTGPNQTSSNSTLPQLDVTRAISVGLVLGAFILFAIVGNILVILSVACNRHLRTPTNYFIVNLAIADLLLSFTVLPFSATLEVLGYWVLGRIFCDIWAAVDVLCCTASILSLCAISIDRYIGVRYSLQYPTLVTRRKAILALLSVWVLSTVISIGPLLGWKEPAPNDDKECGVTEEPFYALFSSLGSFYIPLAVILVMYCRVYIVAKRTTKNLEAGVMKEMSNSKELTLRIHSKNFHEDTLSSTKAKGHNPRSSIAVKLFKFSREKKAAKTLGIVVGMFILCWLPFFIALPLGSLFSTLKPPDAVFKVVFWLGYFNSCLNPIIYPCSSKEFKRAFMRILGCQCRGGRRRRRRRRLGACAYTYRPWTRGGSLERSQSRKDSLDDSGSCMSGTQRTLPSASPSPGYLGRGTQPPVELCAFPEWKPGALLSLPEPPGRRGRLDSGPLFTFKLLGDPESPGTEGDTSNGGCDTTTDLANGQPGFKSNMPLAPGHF
T1 sequence (P23944 whole entry): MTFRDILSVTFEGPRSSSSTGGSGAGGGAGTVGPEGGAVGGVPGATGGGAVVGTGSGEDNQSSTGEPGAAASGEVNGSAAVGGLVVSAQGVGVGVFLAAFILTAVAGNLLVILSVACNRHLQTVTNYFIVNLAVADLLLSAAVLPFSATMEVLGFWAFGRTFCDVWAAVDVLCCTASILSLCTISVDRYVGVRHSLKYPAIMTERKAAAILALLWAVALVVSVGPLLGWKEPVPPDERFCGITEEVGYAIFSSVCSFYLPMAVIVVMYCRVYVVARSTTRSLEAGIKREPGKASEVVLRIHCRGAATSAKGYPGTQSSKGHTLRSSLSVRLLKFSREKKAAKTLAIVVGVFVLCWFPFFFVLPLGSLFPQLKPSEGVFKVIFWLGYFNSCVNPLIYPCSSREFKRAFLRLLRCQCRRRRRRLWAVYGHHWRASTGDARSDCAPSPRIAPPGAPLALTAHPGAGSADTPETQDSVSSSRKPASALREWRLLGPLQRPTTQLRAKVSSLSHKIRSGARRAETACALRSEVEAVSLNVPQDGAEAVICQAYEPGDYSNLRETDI
T1 sequence (P43140 whole entry): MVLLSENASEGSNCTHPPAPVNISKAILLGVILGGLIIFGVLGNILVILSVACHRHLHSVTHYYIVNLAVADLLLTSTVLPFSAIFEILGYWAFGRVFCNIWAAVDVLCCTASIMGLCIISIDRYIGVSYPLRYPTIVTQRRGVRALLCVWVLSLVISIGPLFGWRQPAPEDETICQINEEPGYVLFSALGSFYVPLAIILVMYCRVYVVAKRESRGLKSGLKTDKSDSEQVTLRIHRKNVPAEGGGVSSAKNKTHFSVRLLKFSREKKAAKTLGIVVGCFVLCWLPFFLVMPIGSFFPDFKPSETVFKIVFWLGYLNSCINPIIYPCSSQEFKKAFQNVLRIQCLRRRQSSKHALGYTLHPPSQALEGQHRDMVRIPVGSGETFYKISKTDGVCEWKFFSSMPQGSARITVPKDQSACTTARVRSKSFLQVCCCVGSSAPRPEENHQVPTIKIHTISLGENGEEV

Histamine H1 receptor = Histamine H1 receptor (Cavia porcellus, UniProt P31389); assay: Inhibitory concentration against histamine-H1 receptor
Sequence of Histamine H1 receptor (P31389 whole entry): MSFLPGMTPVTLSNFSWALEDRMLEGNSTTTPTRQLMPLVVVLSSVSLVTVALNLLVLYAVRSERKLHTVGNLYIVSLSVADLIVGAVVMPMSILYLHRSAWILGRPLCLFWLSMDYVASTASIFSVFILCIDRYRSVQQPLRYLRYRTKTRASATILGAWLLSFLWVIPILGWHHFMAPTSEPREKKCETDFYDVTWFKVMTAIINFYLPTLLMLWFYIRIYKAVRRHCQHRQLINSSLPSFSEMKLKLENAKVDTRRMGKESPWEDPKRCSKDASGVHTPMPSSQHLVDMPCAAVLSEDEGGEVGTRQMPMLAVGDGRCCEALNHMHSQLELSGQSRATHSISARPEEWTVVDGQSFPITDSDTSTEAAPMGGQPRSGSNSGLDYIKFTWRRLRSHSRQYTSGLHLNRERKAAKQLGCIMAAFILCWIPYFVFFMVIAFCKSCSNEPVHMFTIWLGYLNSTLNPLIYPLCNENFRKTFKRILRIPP

Rattus norvegicus [3] = species on record: Rattus norvegicus; assay: Effective dose against Histamine-induced skin vascular permeability model in rat after 4 hr (n = 5); format: functional
Rattus norvegicus [4] = species on record: Rattus norvegicus; assay: Effective dose against Histamine-induced skin vascular permeability model in rat after 8 hr (n = 5); format: functional
[5] = target: Histamine H1 receptor (Mus musculus) (UniProt P70174); assay: Ex vivo effective binding dose against histamine-H1 receptor (n = 3)
Sequence of Histamine H1 receptor (Mus musculus) (P70174 whole entry, looked up): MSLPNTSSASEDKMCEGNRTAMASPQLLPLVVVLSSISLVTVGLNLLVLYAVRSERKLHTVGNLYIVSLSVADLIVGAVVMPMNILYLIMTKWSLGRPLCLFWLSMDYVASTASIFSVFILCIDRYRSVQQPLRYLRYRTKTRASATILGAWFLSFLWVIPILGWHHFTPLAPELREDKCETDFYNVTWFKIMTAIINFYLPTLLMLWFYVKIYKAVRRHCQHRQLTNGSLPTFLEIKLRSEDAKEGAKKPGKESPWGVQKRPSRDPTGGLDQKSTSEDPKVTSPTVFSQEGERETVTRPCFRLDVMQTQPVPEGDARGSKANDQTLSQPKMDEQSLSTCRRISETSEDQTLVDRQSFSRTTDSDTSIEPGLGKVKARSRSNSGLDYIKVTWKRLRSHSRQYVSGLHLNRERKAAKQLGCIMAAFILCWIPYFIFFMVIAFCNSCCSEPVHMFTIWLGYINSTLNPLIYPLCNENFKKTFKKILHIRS

Rattus norvegicus [6] = assay: Inhibition of Histamine-induced skin vascular permeability model in rat after 4 hr at 1 mg/Kg (n = 5); format: functional

| Compound | IC50 [1] | IC50 [2] | IC50 (Histamine H1 receptor) | ED50 (Rattus norvegicus [3]) | ED50 (Rattus norvegicus [4]) | ED50 [5] | inhibition in vivo at 1 mg/kg (Rattus norvegicus [6]) |
| --- | --- | --- | --- | --- | --- | --- | --- |
| CCOCCn1cc(C2CCN(Cc3cccc(C(=O)O)c3)CC2)c2ccccc21 | 4950 nM | > 10000 nM | 403 nM | 0.07 mg/kg | 0.45 mg/kg | 16 mg/kg |  |
| CCOCCn1cc(C2CCN(Cc3ccc(OC)c(C(=O)O)c3)CC2)c2ccccc21 | 10000 nM | > 10000 nM | 690 nM | 0.05 mg/kg |  | 5.4 mg/kg |  |
| COc1ccc(CN2CCC(c3cn(Cc4ccoc4)c4ccccc34)CC2)cc1C(=O)O | 10000 nM | > 10000 nM | 205 nM | 0.2 mg/kg | 0.2 mg/kg | 15 mg/kg |  |
| CCOCCn1cc(C2CCN(CCOc3ccccc3C(=O)O)CC2)c2ccccc21 | > 10000 nM | > 10000 nM | 190 nM | 0.08 mg/kg | 0.02 mg/kg | 34 mg/kg |  |
| CCCCn1cc(C2CCN(Cc3ccc(OC)c(C(=O)O)c3)CC2)c2ccccc21 | > 10000 nM | > 10000 nM | 475 nM | 0.08 mg/kg | 0.13 mg/kg | 69 mg/kg |  |
| COc1ccc(CN2CCC(c3cn(Cc4ccc(Cl)s4)c4ccccc34)CC2)cc1C(=O)O | 10000 nM | > 10000 nM | 365 nM | 0.5 mg/kg | 0.7 mg/kg | 57 mg/kg |  |
| O=C(O)c1cccc(CN2CCC(c3cn(Cc4ccc(Cl)s4)c4ccccc34)CC2)c1 | > 10000 nM | > 10000 nM | 330 nM |  |  |  | 7% |
| CCCCn1cc(C2CCN(Cc3cccc(C(=O)O)c3)CC2)c2ccccc21 | > 10000 nM | > 10000 nM | 275 nM | 1 mg/kg |  |  |  |
| O=C(O)c1cccc(CN2CCC(c3cn(Cc4ccoc4)c4ccccc34)CC2)c1 | 10000 nM | > 10000 nM | 560 nM | 1 mg/kg |  |  |  |
| CCOCCn1cc(C2CCN(CCOc3ccccc3C=O)CC2)c2ccccc21 | 3272 nM | 10000 nM | 86 nM | 0.1 mg/kg | 0.22 mg/kg | 8 mg/kg |  |
